In patent US8304446B2, “Compounds” (Glaxo Group Limited, priority 2009, dated 2012):
Counter-ions that a name gives are not always drawn.

Test system: CD4+ CCR4+ T cells
Assay: Chemokine stimulated increases in cellular F-actin content
Type: cell-based
Settings: Homo sapiens, T-cell, 0.5 h; PBMC from normal volunteers; antagonist 30 min at 37° C. before agonist for 15 sec; F-actin content by flow cytometry; read-out: pA2 (converted)
Description: Chemokine Stimulated Increases in Cellular F-Actin Content
Blood was taken from normal volunteers who had taken no medication within the previous ten days and mixed with 1/9 of the volume of 3.8% tri-sodium citrate solution. Chemokine-induced increases in the F-actin content of CD4+ CCR4+ T cells were measured by a modification of the method of Pilette et al. (Eur. Respir. J; 23: 876-884, 2004). Peripheral blood mononuclear cells (PBMC) were isolated by dextran sedimentation followed by Percoll density gradient centrifugation. The PBMCs were incubated with FITC-conjugated anti-human CD4 and PE-conjugated anti-CCR4 antibodies or appropriate isotype controls for 15 min. The cell suspensions were then centrifuged at 400 g for 10 min and the pellets resuspended in assay buffer (phenol red-free RPMI 1640 medium containing 10 mM HEPES and 0.1% bovine serum albumin) at 10^7/mL. The resulting cell suspension was incubated with antagonist or vehicle (0.1% DMSO) for 30 min at 37° C. before stimulation with the agonist for 15 sec. The assay was terminated by addition of 3% formaldehyde. The fixed cells were washed twice with PBS (centrifuging at 1000 g for 5 min to recover the cells) and incubated at room temperature with Alexa fluor-647 phalloidin (0.075 U/mL) in the presence of lyso-phosphatidylcholine (93.75 μg/ml) for 20 min to stain F-actin. The cells were washed once more with PBS and the relative F-actin content of the cells was measured flow cytometrically. The mean fluorescence intensity of 1000 CD4^+ CCR4^+ cells per sample was determined and expressed as a fraction of the mean intensity of the CD4^+ CCR4^− cells in that sample.

| Compound | Kb [nM] |
| --- | --- |
| COc1cccc2c1c(NS(=O)(=O)c1ccc(Cl)s1)nn2Cc1cccc(CNC(=O)C2CCCCN2C)c1 (stereo not drawn) [Example 42, N-[(3-{[3-{[(5-chloro-2-thienyl)sulfonyl]amino}-4-(methyloxy)-1H-indazol-1-yl]methyl}phenyl)methyl]-1-methyl-2-piperidinecarboxamide trifluoroacetate] | ≤ 126 |
| CNC(C)(C)C(=O)NCc1cccc(Cn2nc(NS(=O)(=O)c3ccc(Cl)s3)c3c(OC)cccc32)c1 [Example 56, N1-[(3-{[3-{[(5-Chloro-2-thienyl)sulfonyl]amino}-4-(methyloxy)-1H-indazol-1-yl]methyl}phenyl)methyl]-N2,2-dimethylalaninamide formate] | ≤ 126 |
| COc1cccc2c1c(NS(=O)(=O)c1ccc(Cl)s1)nn2Cc1cccc(CNC(=O)[C@@H]2CCN2)c1 [Example 159, (2S)—N-[(3-{[3-{[(5-Chloro-2-thienyl)sulfonyl]amino}-4-(methyloxy)-1H-indazol-1-yl]methyl}phenyl)methyl]-2-azetidinecarboxamide trifluoroacetate] | ≤ 126 |
| CNCCC(=O)NCc1cccc(Cn2nc(NS(=O)(=O)c3ccc(Cl)s3)c3c(OC)cccc32)c1 [Example 29, N^1-[(3-{[3-{[(5-Chloro-2-thienyl)sulfonyl]amino}-4-(methyloxy)-1H-indazol-1-yl]methyl}phenyl)methyl]-N^3-methyl-β-alaninamide trifluoroacetate] | ≤ 126 |
| COc1ccc(Cn2nc(NS(=O)(=O)c3ccc(C)s3)c3c(OC)cccc32)cc1OC [Example 118, N-[1-{[3,4-Bis(methyloxy)phenyl]methyl}-4-(methyloxy)-1H-indazol-3-yl]-5-methyl-2-thiophenesulfonamide] | ≤ 126 |
| COc1cccc2c1c(NS(=O)(=O)c1ccc(Cl)s1)nn2Cc1cccc(CNC(=O)c2ccoc2)c1 [Example 41, N-[(3-{[3-{[(5-Chloro-2-thienyl)sulfonyl]amino}-4-(methyloxy)-1H-indazol-1-yl]methyl}phenyl)methyl]-3-furancarboxamide] | ≤ 126 |
| COc1cccc2c1c(NS(=O)(=O)c1ccc(Cl)s1)nn2Cc1cccc(CNC(=O)[C@H]2CCN2)c1 [Example 50, (2R)—N-[(3-{[3-{[(5-Chloro-2-thienyl)sulfonyl]amino}-4-(methyloxy)-1H-indazol-1-yl]methyl}phenyl)methyl]-2-azetidinecarboxamide trifluoroacetate] | ≤ 126 |
| COc1cccc2c1c(NS(=O)(=O)c1ccc(Cl)s1)nn2Cc1cccc(CNC(=O)C(C)(C)N(C)C)c1 [Example 34, N^1-[(3-{[3-{[(5-Chloro-2-thienyl)sulfonyl]amino}-4-(methyloxy)-1H-indazol-1-yl]methyl}phenyl)methyl]-N^2,N^2,2-trimethylalaninamide trifluoroacetate] | ≤ 126 |
| COc1ccc(Cn2nc(NS(=O)(=O)c3ccc(Cl)s3)c3c(OC)cccc32)cc1OCCN(C)C [Example 110, 5-Chloro-N-[1-{[3-{[2-(dimethylamino)ethyl]oxy}-4-(methyloxy)phenyl]methyl}-4-(methyloxy)-1H-indazol-3-yl]-2-thiophenesulfonamide] | ≤ 126 |
| COc1cccc2c1c(NS(=O)(=O)c1ccc(Cl)s1)nn2Cc1cccc(CNC(=O)C(C)(C)CN)c1 [Example 11, 3-Amino-N-[(3-{[3-{[(5-chloro-2-thienyl)sulfonyl]amino}-4-(methyloxy)-1H-indazol-1-yl]methyl}phenyl)methyl]-2,2-dimethylpropanamide hydrochloride] | ≤ 126 |
| COc1cccc2c1c(NS(=O)(=O)c1ccc(Cl)s1)nn2Cc1cccc(CNC(=O)[C@@H](C)N)c1 [Example 19, N^1-[(3-{[3-{[(5-chloro-2-thienyl)sulfonyl]amino}-4-(methyloxy)-1H-indazol-1-yl]methyl}phenyl)methyl]-D-alaninamide trifluoroacetate] | ≤ 126 |
| COC(=O)[C@@H](N)CC(=O)NCc1cccc(Cn2nc(NS(=O)(=O)c3ccc(Cl)s3)c3c(OC)cccc32)c1 [Example 23, Methyl N^4-[(3-{[3-{[(5-chloro-2-thienyl)sulfonyl]amino}-4-(methyloxy)-1H-indazol-1-yl]methyl}phenyl)methyl]asparaginate trifluoroacetate] | ≤ 126 |
| COc1cccc2c1c(NS(=O)(=O)c1ccc(Cl)s1)nn2Cc1cccc(CNC(=O)CN)c1 [Example 20, N^1-[(3-{[3-{[(5-chloro-2-thienyl)sulfonyl]amino}-4-(methyloxy)-1H-indazol-1-yl]methyl}phenyl)methyl]glycinamide trifluoroacetate] | ≤ 126 |
| CC[C@H](C)[C@@H](N)C(=O)NCc1cccc(Cn2nc(NS(=O)(=O)c3ccc(Cl)s3)c3c(OC)cccc32)c1 [Example 46, N^1-[(3-{[3-{[(5-Chloro-2-thienyl)sulfonyl]amino}-4-(methyloxy)-1H-indazol-1-yl]methyl}phenyl)methyl]-D-alloisoleucinamide] | ≤ 126 |
| COc1cccc2c1c(NS(=O)(=O)c1ccc(Cl)s1)nn2Cc1ccc(OCCN(C)C)cc1 [Example 75, 5-Chloro-N-[1-[(4-{[2-(dimethylamino)ethyl]oxy}phenyl)methyl]-4-(methyloxy)-1H-indazol-3-yl]-2-thiophenesulfonamide] | ≤ 126 |
| COc1cccc2c1c(NS(=O)(=O)c1ccc(Cl)s1)nn2Cc1cccc(S(N)(=O)=O)c1 [Example 77, N-[1-{[3-(aminosulfonyl)phenyl]methyl}-4-(methyloxy)-1H-indazol-3-yl]-5-chloro-2-thiophenesulfonamide] | ≤ 126 |
| COc1cccc2c1c(NS(=O)(=O)c1ccc(Cl)s1)nn2Cc1cccc(CNC(C)=O)c1 [Example 1, N-[(3-{[3-{[(5-Chloro-2-thienyl)sulfonyl]amino}-4-(methyloxy)-1H-indazol-1-yl]methyl}phenyl)methyl]acetamide] | ≤ 126 |
| COc1cccc2c1c(NS(=O)(=O)c1ccc(Cl)s1)nn2Cc1cccc(CNC(=O)[C@H]2CCCCN2)c1 [Example 9, (2R)—N-[(3-{[3-{[(5-chloro-2-thienyl)sulfonyl]amino}-4-(methyloxy)-1H-indazol-1-yl]methyl}phenyl)methyl]-2-piperidinecarboxamide trifluoroacetate salt] | ≤ 126 |
| COc1ccc(F)c2c1c(NS(=O)(=O)c1ccc(Cl)s1)nn2Cc1cccc(C(N)=O)c1 [Example 68, 3-{[3-{[(5-Chloro-2-thienyl)sulfonyl]amino}-7-fluoro-4-(methyloxy)-1H-indazol-1-yl]methyl}benzamide] | ≤ 126 |
| COc1cccc2c1c(NS(=O)(=O)c1ccc(Cl)s1)nn2Cc1cccc(CNC(N)=O)c1 [Example 59, N-[1-[(3-{[(Aminocarbonyl)amino]methyl}phenyl)methyl]-4-(methyloxy)-1H-indazol-3-yl]-5-chloro-2-thiophenesulfonamide] | ≤ 126 |
| COc1cccc2c1c(NS(=O)(=O)c1ccc(Cl)s1)nn2Cc1cccc(CNC(=O)CC(C)N)c1 (stereo not drawn) [Example 25, 3-Amino-N-[(3-{[3-{[(5-chloro-2-thienyl)sulfonyl]amino}-4-(methyloxy)-1H-indazol-1-yl]methyl}phenyl)methyl]butanamide trifluoroacetate] | ≤ 126 |
| COc1cccc2c1c(NS(=O)(=O)c1ccc(Cl)s1)nn2Cc1cccc(CNC(=O)[C@H](C)N(C)C)c1 [Example 31, N^1-[(3-{[3-{[(5-Chloro-2-thienyl)sulfonyl]amino}-4-(methyloxy)-1H-indazol-1-yl]methyl}phenyl)methyl]-N^2,N^2-dimethylalaninamide trifluoroacetate] | ≤ 126 |
| COc1cccc2c1c(NS(=O)(=O)c1ccc(Cl)s1)nn2Cc1cccc(CNC(=O)[C@@H](N)CCCCN)c1 [Example 49, N^1-[(3-{[3-{[(5-Chloro-2-thienyl)sulfonyl]amino}-4-(methyloxy)-1H-indazol-1-yl]methyl}phenyl)methyl]-L-lysinamide] | ≤ 126 |
| COc1cccc2c1c(NS(=O)(=O)c1ccc(Cl)s1)nn2Cc1cccc(CNC(=O)[C@H](N)CC(C)C)c1 [Example 45, N^1-[(3-{[3-{[(5-Chloro-2-thienyl)sulfonyl]amino}-4-(methyloxy)-1H-indazol-1-yl]methyl}phenyl)methyl]-D-leucinamide] | ≤ 126 |
| COc1cc(Cn2nc(NS(=O)(=O)c3ccc(Cl)s3)c3c(OC)cccc32)ccc1OCCN(C)C [Example 76, 5-Chloro-N-[1-{[4-{[2-(dimethylamino)ethyl]oxy}-3-(methyloxy)phenyl]methyl}-4-(methyloxy)-1H-indazol-3-yl]-2-thiophenesulfonamide] | ≤ 126 |
| COc1ccc(Cn2nc(NS(=O)(=O)c3ccc(Cl)s3)c3c(OC)cccc32)cc1OC [Example 53, N-[1-{[3,4-Bis(methyloxy)phenyl]methyl}-4-(methyloxy)-1H-indazol-3-yl]-5-chloro-2-thiophenesulfonamide] | ≤ 126 |
| COc1cccc2c1c(NS(=O)(=O)c1ccc(Cl)s1)nn2Cc1cccc(CNS(C)(=O)=O)c1 [Example 58, 5-Chloro-N-{4-(methyloxy)-1-[(3-{[(methylsulfonyl)amino]methyl}phenyl)methyl]-1H-indazol-3-yl}-2-thiophenesulfonamide] | ≤ 126 |
